In patent US4889941A, “Synthetic flavonoids as inhibitors of leukotrienes and 5-lipoxygenase” (Fisons Corporation, priority 1987, dated 1989):
Structures can show the parent of a compound that is named as a salt. Values belong to the molecule of their own block, whether it stands above or below them.

Experiments:
leukotriene C4 (LTC4) = assay: Inhibition of LTC4-induced guinea pig ilial contractions; format: cell-based; settings: Cavia porcellus, LTC4 6 nanomolar, read-out: percent inhibition of LTC4-induced contraction
Experimental: Test for Inhibition of LTC4 -Induced Guinea Pig Ilial Contractions
The evaluation of potential anti-allergic compounds for antagonism of the in vitro effects of leukotriene C4 (LTC4) is conducted according to the following procedure. Guinea pig ilial strips are obtained from recently killed animals and hung in isolated tissue baths comprising a balanced solution of salts such as Krebs' solution. After allowing for one hour equilibration of the tissue in the bath, the gram tension (G.T.) on one tissue is arbitrarily set at one. LTC4 (6 nanomolar concentration) is then added to the tissue bath. This induces a long, sustained contraction of the tissue that is measured on the strip chart recorder (the G.T. increases to about 2). After the LTC4 -induced contraction has plateaued and remains stable, increasing amounts of the test compound are added to the bath. If the compound is effective, a decrease in the G.T. (Δ G.T.) from the LTC4 -induced value is seen (e.g., from 2 to 1.5). The percent inhibition at each concentration is calculated according to the formula: [formula] Four replicate tissues are run.

[1] = Solubility in the balanced salts solution of the tissue bath; format: physicochemical; settings: balanced salts solution of the LTC4 ilial assay
[2] = test system: edema in a rat anaphylaxis test; assay: Rat anaphylaxis test (paw edema after bovine serum albumin challenge); format: in vivo; settings: for activity in the rat anaphylaxis test: administered as a suspension
Experimental: Groups of 15-20 rats are intraperitoneally sensitized with 500 μg of bovine serum albumin-absorbed alum admixed with 2×10^10 killed Bordetella pertussis vaccine organisms. Fourteen days later, the paw volume is measured using a mercury plethysmometer. Immediately thereafter, the test compound suspended in about 1 ml of 1% Clearjel ("Instant Clearjel", a food grade pregelatinized starch from National Starch and Chemical Corporation, New York, N.Y.) at 100 mg/kg is administered ip and, one hour later, the right hind paw is injected subcutaneously with 100 μg of bovine serum albumin dissolved in 0.1 ml of saline. (In controls, no test compound is suspended in the Clearjel.) The paw volume is remeasured 90 minutes post antigenic challenge to determine the volume increase (Δ V) since the first measurement. The percent inhibition of edema is [formula] The effect of theophylline (90 mg/kg, po) is tested as a positive control.

5-lipoxygenase = molecular target: T1, 5-lipoxygenase (Homo sapiens, UniProt P09917); assay: Inhibition of 5-lipoxygenase (5-HETE formation from arachidonic acid, HPLC); format: biochemical; settings: arachidonic acid 1 mg/ml, pH 7.4, 6 minutes at 30° C.
T1 sequence (P09917 1-674): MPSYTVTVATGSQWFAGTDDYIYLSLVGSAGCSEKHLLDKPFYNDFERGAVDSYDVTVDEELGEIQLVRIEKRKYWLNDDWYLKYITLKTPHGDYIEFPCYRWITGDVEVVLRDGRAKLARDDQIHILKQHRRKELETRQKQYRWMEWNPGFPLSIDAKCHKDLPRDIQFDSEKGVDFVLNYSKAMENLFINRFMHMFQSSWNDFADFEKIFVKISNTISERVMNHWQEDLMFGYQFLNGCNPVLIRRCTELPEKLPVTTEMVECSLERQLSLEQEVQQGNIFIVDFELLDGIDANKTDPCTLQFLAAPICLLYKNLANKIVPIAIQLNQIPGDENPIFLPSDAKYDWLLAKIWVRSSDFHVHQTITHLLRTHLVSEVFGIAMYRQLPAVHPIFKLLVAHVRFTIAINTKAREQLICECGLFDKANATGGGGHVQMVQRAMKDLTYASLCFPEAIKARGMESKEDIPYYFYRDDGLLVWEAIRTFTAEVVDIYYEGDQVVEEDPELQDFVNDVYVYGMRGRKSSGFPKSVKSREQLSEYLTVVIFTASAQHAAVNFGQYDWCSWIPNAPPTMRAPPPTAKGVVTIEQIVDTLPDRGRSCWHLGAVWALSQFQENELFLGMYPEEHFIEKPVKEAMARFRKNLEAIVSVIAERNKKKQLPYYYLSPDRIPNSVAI
Experimental: Test for Inhibition of 5-Lipoxygenase
This test is based on the procedure of Arai et al., J. Med. Chem., Vol. 26, 72 (1983).
Arachidonic acid in the presence of the enzyme 5-lipoxygenase is converted to 5-hydroxy-eicosatetraenoic acid (5-HETE) through a 2-step process. To assess the activity of a test compound on 5-lipoxygenase activity, a specific concentration of the test compound is added to 1 mg/ml of arachidonic acid in the presence of the appropriate amount of 5-lipoxygenase in a solution of potassium phosphate buffer containing 1 mM CaCl2 at pH 7.4. The reaction is carried out for 6 minutes at 30° C. in a total volume of 500 μl. The reaction is stopped by addition of lM citric acid. The 5-HETE is extracted and quantitated using high performance liquid chromatography. The percent activity is calculated as follows: [formula]

Compound: COc1ccc(CCNCC(O)COc2ccc3c(=O)cc(-c4ccccc4)oc3c2)cc1OC (stereo not shown) [Example 1, 7-[3-[(3,4-dimethoxyphenethyl)amino]-2-hydroxypropoxy]flavone Maleate]
- inhibition at 10 µM (leukotriene C4 (LTC4); final tissue bath concentration 1×10^-5 M): 94%
- inhibition at 1 µM (leukotriene C4 (LTC4); final tissue bath concentration 1×10^-6 M): 52.3%
- inhibition at 5 µM (leukotriene C4 (LTC4); final tissue bath concentration 5×10^-6 M): 89.8%

- solubility in the balanced salts solution [1]: insoluble
Compound: O=c1cc(-c2ccccc2)oc2cc(OCC(O)CNCC(O)COc3ccccc3)ccc12 (stereo not shown) [Example 11, 7-[3-[3-phenoxy-2-(hydroxypropyl)amino]-2-hydroxypropoxy]flavone Hydrochloride]
- activity in the rat anaphylaxis test [2]: active

- solubility in the balanced salts solution [1]: insoluble
Compound: O=c1cc(-c2ccccc2)oc2cc(OCC(O)CN3CCN(c4ccccc4)CC3)ccc12 (stereo not shown) [Example 12, 7-[3-(N-phenylpiperazinyl)-2-hydroxypropoxy]flavone]
- activity in the rat anaphylaxis test [2]: active

- IC50 (5-lipoxygenase): ~90 nM
Compound: Br.O=c1cc(-c2ccccc2)oc2cc(OCC(O)CNCCc3ccc(O)c(O)c3)ccc12 (stereo not shown) [Example 14, 7-[3-[(3,4-Dihydroxyphenethyl)amino]-2-hydroxypropoxy]flavone Hydrobromide]
- percent inhibition of edema ([2]; rat, 100 mg/kg ip in 1% Clearjel, paw volume 90 minutes post antigenic challenge): 63%

- solubility in the balanced salts solution [1]: insoluble
Compound: O=c1c(-c2ccccc2)c(-c2ccccc2)oc2cc(OCC(O)CNCCc3ccccc3)ccc12 (stereo not shown) [Example 18, 3-Phenyl-7-(3-phenethylamino-2-hydroxypropoxy)flavone]
- activity in the rat anaphylaxis test [2]: active

Compound: O=c1c(-c2ccccc2)c(-c2ccccc2)oc2cc(OCC(O)CNc3ccccc3)ccc12 (stereo not shown) [Example 19, 3-Phenyl-7-(3-anilino-2-hydroxypropoxy)flavone]
- activity in the Rat Anaphylaxis test ([2]; as hydrochloric acid salt): inactive
- activity in the Rat Anaphylaxis test ([2]; free base form): active
